Reference: ChEMBL document CHEMBL1133687, “Structure-based design of novel bicyclic nonpeptide inhibitors for the src SH2 domain” (J Med Chem, 2000)

Biological target: Proto-oncogene tyrosine-protein kinase Src (Homo sapiens, UniProt P12931)
Test: Binding affinity against Src SH2 domain in competitive fluorescence polarization assay

Proto-oncogene tyrosine-protein kinase Src, sequence (P12931 2-536 limits assumed): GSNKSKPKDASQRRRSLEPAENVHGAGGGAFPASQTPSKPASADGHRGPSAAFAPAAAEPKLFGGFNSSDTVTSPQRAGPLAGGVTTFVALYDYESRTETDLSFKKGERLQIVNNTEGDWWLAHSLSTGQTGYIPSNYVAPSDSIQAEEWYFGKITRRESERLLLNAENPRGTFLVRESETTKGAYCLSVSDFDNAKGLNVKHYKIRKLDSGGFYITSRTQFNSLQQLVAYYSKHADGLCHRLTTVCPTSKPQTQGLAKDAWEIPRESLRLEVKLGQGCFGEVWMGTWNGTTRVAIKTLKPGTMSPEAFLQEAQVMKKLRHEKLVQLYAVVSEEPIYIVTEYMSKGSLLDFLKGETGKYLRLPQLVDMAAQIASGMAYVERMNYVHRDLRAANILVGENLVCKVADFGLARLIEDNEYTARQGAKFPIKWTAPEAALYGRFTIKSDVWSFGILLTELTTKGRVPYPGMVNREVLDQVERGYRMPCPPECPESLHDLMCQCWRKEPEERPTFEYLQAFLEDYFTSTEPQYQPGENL

`CC(=O)N[C@@H](Cc1ccc(OP(=O)(O)O)cc1)C(=O)N[C@H]1CCCCc2cc(OCC3CCCCC3)c(C(N)=O)cc21` gave an IC50 of 0.1 µM.

`CC(=O)N[C@@H](Cc1ccc(OP(=O)(O)O)cc1)C(=O)N[C@H]1CCCOc2cc(OCC3CCCCC3)c(C(N)=O)cc21` showed an IC50 of 0.2 µM.

`CC(=O)N[C@@H](Cc1ccc(OP(=O)(O)O)cc1)C(=O)N[C@@H]1CCCCc2cc(OCC3CCCCC3)c(C(N)=O)cc21` was tested, and the IC50 was 8.1 µM.

Work on `CC(=O)N[C@@H](Cc1ccc(OP(=O)(O)O)cc1)C(=O)N[C@@H]1CCCOc2cc(OCC3CCCCC3)c(C(N)=O)cc21` yielded an IC50 of 1.6 µM.

`CC[C@H](C)[C@H](NC(=O)[C@H](CCC(=O)O)NC(=O)[C@H](CCC(=O)O)NC(=O)[C@@H](N)Cc1ccc(OP(=O)(O)O)cc1)C(=O)O` was tested, and the IC50 was 5.6 µM.
